# From patent publication US20100075993A1, “SMALL MOLECULE INHIBITORS AGAINST WEST NILE VIRUS REPLICATION” (DREXEL UNIVERSITY, priority 2005, published 2010)
# What was measured:
# WNV replicon = WNV replicon luciferase assay in BHK 26.5 cells (HTS, re-test, IC50); format: cell-based, West Nile virus; details: for IC50: West Nile virus, 24 h; for Fold decrease (HTS) / Fold decrease (Re-test): luciferase activity; for Fold decrease (HTS): 10 μM compound, 24 hours, BHK 26.5 cells; for Fold decrease (Re-test): re-checked at a single 10 μM concentration
# Experimental: Ten micromolar concentrations of a selected compound were incubated with BHK 26.5 cells expressing luciferase whose activity is dependent upon WNV replicon replication (FIG. 1A). Primary “hits” were defined by the ability to reduce the amount of luciferase enzyme activity by more than 50%, compared to controls.
# To quantify and rank the activity of the 23 remaining compound “hits”, a serial dilution of each compound was incubated with WNV replicon cells to determine the concentration that inhibits 50% of the luciferase readout (IC50s). […] A number of compounds had significant effect only at the highest, 10 μM concentration. However, several compounds had IC50s between 2 and 5 (Table 3), which is very reasonable for primary HTS hits from a compound library. Only a few compounds could cause 90% inhibition in the replicon cells at the concentrations tested.
# (§1) Replicon-harboring cells were plated 96-well plates at 10,000 cells per well in MEM plus 3% FBS. 24 hours after plating, compounds were added to the wells by a Robotic liquid handler (Biomek NX) to a final concentration of 10 μM and 1% DMSO. For each 96 well plate, A1 to A8 were left open, H1 to H4 contained 1% DMSO, H5-H8 contained Mycophenolic acid (Sigma-Aldrich, St. Louis, Mo.), which was included as positive controls. After 24 hours of treatment, the media were removed and the luciferase activity expressed in the replicon cells was quantified. When cyto-toxicity was measured, duplicate 96 well plates were plated with BHK 26.5 replicon cells. One plate was used for luciferase assay and one plate was used for measuring toxicity using MTT assay.
# Luciferase assay was performed by using the STEADY GLO reagent (Promega Corp. Madison, Wis.) according to the manufacturer's recommendation with slight modifications. Briefly, the culture media from the 96 wells were removed by dumping on paper towels.
# 100 μl of a 1:1 mixture of luciferase regent and culture media were added to the plate. After 5-minute incubation, the luminescence was read on a TOPCOUNT (PerkinElmer, Wellesley, Mass.).
# BHK 26.5 replicon cells = assay: MTT toxicity assay on BHK 26.5 replicon cells; format: cell-based; details: MTT assay
# Source text: The HTS strategy follows the flowchart outlined in FIG. 2. 35,000 compounds were screened from a chemical library described below, using a cutoff of 50% reduction in luminescence readout as the criteria for further study. Upon completion of the screen, approximately 1100 compounds were selected, making the hit rate of 3%. This is considerably higher than expected, implying many false positive and/or cytotoxic compounds. Nevertheless, the compounds were picked out from the “daughter” plates and re-checked at a single 10 μM concentration. In addition, a duplicate 96 well plates were also plated and the toxicity of the compounds was determined in an MTT assay. Upon completion of these assays, most compounds were disqualified as either false positives or being toxicity to cells. As a result, only a small number of compounds were further analyzed directly from the “mother” plate stock. After IC50 determination and secondary assay to rule out luciferase inhibitors, 23 “hits” were identified.
# as §1
# (§2) Compound toxicity was determined by MTT assay. For the MTT assay, the cell medium was removed and the monolayers were incubated with 100 μl/well of 0.5 mg/ml MTT for 6 h at 37° C. The MTT solution was then aspirated and 100 μl/well of the 10% SDS (in 0.01N HCl) was added, followed by spectrophotometric quantitation (570 nm) of the insoluble MIT reaction product.
# WNV NS3 protein = assay: Western blot of WNV protein in compound treated replicon cells; format: cell-based, West Nile virus; details: 48-hour treatment, up to 10 uM; MPA 2.5 ug/ml
# Experimental: Mycophenolic acid (MPA) was used as positive control in the experiment. 4×10^4 cells were seeded in 24 well plates 24 hours before the various concentrations of compounds were added. After 48 hours of drug treatment, SDS-Sample buffer were added to the wells to lyse the cells. The protein samples were separated on SDS-PAGE and transferred to PVDF membrane. Viral protein was detected by probing with a monoclonal antibody against WNV. The same membrane was stripped and probed for beta-actin with the signals shown at the bottom of the blot.
# Although it is reassuring that multiple tests have yielded similar positive results, the ability of the compounds to inhibit WNV replication was further assessed in secondary assays. In the western blot analysis shown in FIG. 5, total cell proteins were prepared from WNV replicon cells treated with the hit compounds and the viral protein NS3 was detected with a monoclonal […] against West Nile virus (15). The same blots were stripped and probed for beta-actin to show equal loading. […] When compared with the IC50 determined for these compounds in the luciferase assay, there was a good correlation between the luciferase reduction and the viral protein reduction.
# Total cell lysates from replicon cells were harvested from replicon cells in 1×SDS sample buffer. The lysates were heated at 70° C. for 10 min in the presence of DTT before electrophoresis on a 10% Tris-glycine SDS polyacrylamide gel (Invitrogen) in 1× Tris-glycine buffer. The protein was transferred to PVDF (Invitrogen) membrane. Following the transfer, the membrane was rinsed once with TBS containing 0.5% Tween-20 (TBS-Tween) and blocked in TBS-Tween containing 5% non-fat milk for 1 h. After washing with PBS-Tween, the membrane was incubated with the primary WNV antibody (15) at 1:3000 dilutions for 1 h at 25° C. Prior to incubation with HRP conjugated-mouset IgG secondary antibody (Amersham, Life Science, Piscataway, N.J.) diluted 1:5000, the blot was washed in PBS-Tween. Following the secondary antibody incubation, the blot was washed again and treated with Super Signal Chemiluminescent Reagent (Pierce) according to the manufacturer's protocol and exposed to X-ray film. For controls, the blots were stripped and re-probed with an antibody to beta-actin (Chemicon), which was detected with a goat anti-mouse horseradish peroxidase conjugate.
# WNV RNA = assay: Northern blot of WNV RNA in compound treated replicon cells; format: cell-based, West Nile virus; details: for WNV RNA replication / RNA level (northern blot): 10 μM, 48 hours; for WNV RNA reduction: 48-hour treatment, compounds 10 μM
# Experimental: FIG. 6 is a picture of a Northern blot gel of compound treated WNV replicon cells. 4×10^4 cells were seeded in 24 well plates. After 24 hours, the cells were treated with DMSO (lanes 2, 3) or the non-specific inhibitors, MPA (lane 1) or the compounds […] (lane 4), 18-B3 (lane 5) or 52-F2 (lane 6). After 48 hours, total RNA were isolated, separated on denaturing agrose gels and transferred to nylon membrane. Total RNA from a non-replicon cell (Huh-7 cell) was loaded in lane 7 as negative control. The membrane was probed with [^32P]-dCTP-labeled WNV NS5 and human beta-actin. The signal was quantified using a BioRad phosphoimager and WNV RNA level was calculated using beta-actin as a reference.
# To confirm that the compounds can indeed inhibit WNV RNA replication, the WNV RNA level in the replicon cells treated with compounds by Northern blot analysis. Several hit compounds, 18-B3, 275-F9, 275-D9, 52-F2 and MPA were selected to treat the BHK 26.5 cells at 10 μM. […] The “hit” compounds 18-B3 and 275-F9 reduced WNV RNA by 1.5 and 2 fold, respectively (FIG. 6, lanes 4, 5). 18-B3 is one of the nine compounds that have similar structures while 275-F9 is one from another class of four compounds (Table 3).
# Total cellular RNA was extracted by using the RNEASY kit (Qiagen NV, Netherlands). Northern blot analysis was done according to the protocol of Gu et al. 2002 (8). Briefly, 5 μg total RNA was electrophoresed through a 1.0% agarose gel containing 2.2M formaldehyde, transferred to a nylon membrane and immobilized by UV cross-linking (Stratagene, La Jolla, Calif.). After pre-hybridization in 5 ml of QuickHyb (Amersham, Piscataway, N.J. GE Healthcare, Giles, UK), [2P] dCTP-labeled probe made by random primer labeling of a 2.7 kb NS5 DNA fragment and a human beta-actin DNA at 65° C. The membrane was washed twice in 2×SSC/0.1% SDS for 10 min at room temperature and twice in 0.1×SSC/0.1% SDS for 15 min at 68° C. Membranes were exposed to Molecular Imager FX phosphoimager (BioRad, Hercules, Calif.) and the radiographic signals were collected and quantitated.
# WNV = WNV yield reduction assay (live virus) on BHK cells; format: cell-based, West Nile virus
# Experimental: The antiviral assay for the 309-F6 compounds was conducted on BHK cells. The virus produced in the presence of 1% DMSO or various concentrations of compounds was tittered on Vero cells. The amount of virus relative to the 1% DMSO control was plotted on the y-axis; the concentration of the compound 309F6 is shown in μM on the x-axis. Data from two independently treated wells (Test 1 and Test 2) are shown.
# To measure activity against live WNV, BHK cells were plated in 96-well plates at a concentration of 12,000 cells/well. One day later the cells were infected with WNV for 1 h at an MOI of 0.05. The cells were then washed once and re-fed with fresh DMEM containing dilutions of the test compound. Plates were then incubated at 37° C. for 48 h, the supernatant collected and the WNV produced titered. For virus titration, Vero cells were plated in 96-well plates at 8000 cells/well and incubated overnight. The Vero cell monolayer were then infected for 1 h with various dilutions of the WNV supernatant, overlaid with media containing 0.6% tragacanth (ICN, CA) and incubated at 37° C. for 48 h. The culture media was then aspirated; the plate was rinsed, air-dried, and fixed with 50 μl/well acetone/methanol (50:50). Viral foci were detected for enumeration by immunostaining as described previously (15).
# BHK cells = assay: toxicity (MTT, CC50) in BHK cells parallel to WNV infection assay; format: cell-based; details: 20 μM, parallel toxicity assessment
# Experimental: Several of these original compounds selected from the WNV replicon based screen were evaluated in an antiviral assay against WNV live virus. […] Modifications of this compound would be further investigated
# The toxicity of 101-G7 was also measured by MTT assay and CC50 was calculated. 40 μM is highest concentration used.
# as §2
Compound,IC50 (WNV replicon) [µM],Fold decrease (HTS) (WNV replicon) [Fold],Fold decrease (Re-test) (WNV replicon) [Fold],Toxicity (uM)* (BHK 26.5 replicon cells) [µM],WNV NS3 protein level (western blot) (WNV NS3 protein),WNV RNA replication / RNA level (northern blot) (WNV RNA),WNV RNA reduction (WNV RNA) [fold],"WNV titer reduced (WNV; 20 μM, BHK cells, titered on Vero cells)",selective index (WNV; estimated),activity in the WNV infection assay (WNV; live WNV),cell toxicity (BHK cells)
"COc1ccc(-n2nc3c(c2NC(=O)c2ccc(S(=O)(=O)N4CCCCC4)cc2)CSC3)cc1 [Compound 18-D2, N-[2-(4-Methoxy-phenyl)-2,6-dihydro-4H-thieno[3,4-c]pyrazol-3-yl]-4-(piperidine-1-sulfonyl)-benzamide]",7.5,3,2.8,>30,dose dependency is also clearly seen,–,–,–,–,–,–
"Cc1nc2c(C(=O)NCCC3=CCCCC3)cnn2c(O)c1Cc1ccccc1Cl [Compound 275-F9, 6-(2-Chloro-benzyl)-7-hydroxy-5-methyl-pyrazolo[1,5-a]pyrimidine-3-carboxylic acid (2-cyclohex-1-enyl-ethyl)-amide]",7.5,27,4.5,>10,–,clearly capable of reducing the WNV RNA level,2,–,–,–,–
"COc1ccc(-n2nc3c(c2NC(=O)c2cccs2)CSC3)cc1 [Compound 18-B3, Thiophene-2-carboxylic acid [2-(4-methoxy-phenyl)-2,6-dihydro-4H-thieno[3,4-c]pyrazol-3-yl]-amide]",5,3,2,>30,–,clearly inhibited the WNV RNA replication,1.5,–,–,–,–
"COc1ccc(CC(=O)Nc2ccc(C(=N)NO)cc2)cc1 [Compound 331-D11, N-[4-(N-Hydroxycarbamimidoyl)-phenyl]-2-(4-methoxy-phenyl)-acetamide]",5,4,2,>30,dose dependency is also clearly seen,–,–,–,–,–,–
"CCN(CCNC(=O)c1cnn2c(O)c(Cc3ccccc3F)c(C)nc12)c1ccccc1 [Compound 309-F6, 6-(2-Fluoro-benzyl)-7-hydroxy-5-methyl-pyrazolo[1,5-a]pyrimidine-3-carboxylic acid [2-(ethyl-phenyl-amino)-ethyl]-amide]",10,7,6,>10,reduced viral protein only at the 10 uM,–,–,approximately 90%,more than 8,inhibited WNV production,only slight cell toxicity
"Cc1ccc(CCNC(=O)c2cnn3c(O)c(Cc4ccccc4F)c(C)nc23)cc1 [Compound 310-B3, 6-(2-Fluoro-benzyl)-7-hydroxy-5-methyl-pyrazolo[1,5-a]pyrimidine-3-carboxylic acid (2-p-tolyl-ethyl)-amide]",10,17,4,>10,reduced viral protein only at the 10 uM,–,–,–,–,–,–
